From patent US20250270321A1, “METHODS OF TREATING LUNG CANCER BY ADMINISTERING A PD-1 INHIBITOR” (priority 2021, published 2025)
Where “and” joins values, the source holds several entries; their conditions need not be identical. Equal entries are not always repeated. Entries after “also recorded” stand apart in the source; their conditions may differ. Marks after values point to notes of the source that are not given here.

How the values were obtained:
[1] = system: advanced NSCLC (aNSCLC) with PD-L1 ≥50%; assay: EMPOWER-Lung 1 phase 3 study, cemiplimab monotherapy vs platinum-doublet chemotherapy, OS and PFS; format: in vivo, human; conditions: cemiplimab monotherapy versus platinum-doublet chemotherapy
Text: Additional objectives include further characterization of tumor responses, patient-reported outcomes, safety, and pharmacokinetics (PK). Objectives: […] Progression-free survival, the time to tumor progression (based on Response Evaluation Criteria in Solid Tumors version 1.1 [RECIST 1.1] criteria [Eisenhauer) 2009]) or death, was chosen as a primary endpoint because PFS is recognized as a marker of clinical benefit. […] Disease progression will be determined based on the RECIST 1.1 criteria (Eisenhauer 2009). […] A secondary objective of the study includes comparing the ORR of cemiplimab versus platinum-based chemotherapies. Primary Endpoints: The primary endpoints are OS and PFS (per RECIST 1.1, Eisenhauer 2009). Overall survival is defined as the time from randomization to the date of death. A patient who has not died is censored at the last known date of contact. Progression-free survival is defined as the time from randomization to the date of the first documented tumor progression or death due to any cause. Patients are censored according to the following rules: […] Study Design: […] […] Safety is assessed through the occurrence of TEAEs, vital sign evaluation, physical examination, and laboratory analyses. […] […]

[2] = system: locally advanced NSCLC (laNSCLC) with PD-L1 ≥50%; assay: EMPOWER-Lung 1 subgroup analysis: patients with locally advanced NSCLC; format: in vivo, human
Text: Methods: […] Patients with locally advanced non-small cell lung cancer ([…]) were those with Stage IIIB/IIIC disease who were not candidates for definitive concurrent chemoradiotherapy. Study Design: Key eligibility criteria included: (i) treatment-naïve advanced NSCLC; […] (iii) no EGFR, ALK, or ROS1 mutations; […] Stratification factors included: histology (squamous vs non-squamous) and region (Europe, Asia, or ROW). Primary endpoints: OS and PFS. Secondary endpoints: ORR (key), DOR, HRQoL, and safety. The patients had locally advanced NSCLC, including those with Stage IIIB/IIIC disease who were not candidates for treatment with definitive concurrent chemoradiotherapy or had recurred after initial treatment with concurrent chemoradiotherapy.

[3] = system: advanced NSCLC; conditions: in vivo
[4] = system: advanced NSCLC with PD-L1 ≥50% and clinically stable treated brain metastases; assay: EMPOWER-Lung 1 post-hoc patient reported outcomes (EORTC QLQ-C30/QLQ-LC13) in brain metastases subgroup; format: in vivo, human
Procedure: Patient Reported Outcomes (PROs): Post-hoc exploratory analyses were conducted to evaluate PROs in this subgroup of aNSCLC patients with PD-L1 ≥50% and clinically stable treated brain metastases at baseline. PROs were assessed at baseline and day 1 of each treatment cycle for the first 6 cycles, and then on day 1 of every third cycle using EORTC QLQ-C30 and QLQ-LC13 questionnaires. Higher scores indicate better functioning, global health status (GHS)/quality of life (QoL), or worse symptom severity. Mixed model for repeated measures analyses were performed to compare overall change from baseline scores between the two treatment arms, while controlling for baseline characteristics. The baseline PRO scores of the cemiplimab arm were broadly similar with the chemotherapy arm.

[5] = system: advanced NSCLC with PD-L1 ≥50%; assay: EMPOWER-Lung 1 patient-reported symptoms, functioning and QoL (EORTC QLQ-C30/QLQ-LC13), ITT population; format: in vivo, human; conditions: for Definitive deterioration on key symptoms (dyspnea, cough, pain in chest, pain in other body parts, fatigue, nausea/vomiting, appetite loss, constipation, diarrhea): all P<0.05
Text: Methods: EMPOWER-Lung 1 was a multicenter, open-label, randomized, controlled, Phase III, pivotal clinical trial of cemiplimab in adults (≥18 years) with: […] (ii) ECOG performance status ≤1; (iii) adequate organ and bone marrow function; and (iv) adequately treated clinically stable brain metastases (historically underrepresented in clinical trials) were allowed to enroll. […] In the intent-to-treat population, mixed-effects repeated measures models (mixed-model repeat measures, MMRM) were used to estimate least squares (LS) mean change from BL on all scales. Follow-up assessment was conducted 14 to 30 days after the last study treatment administration if a patient discontinued, or 14 to 30 days (±7 days) after the last cycle visit if the patient completed treatment. […] Scores range from 0 to 100; high scores on functional domains and low scores on symptoms reflect better outcomes. The QLQ-LC13 is a patient-reported outcome measure that assesses lung cancer disease- and treatment-specific symptoms during the past week. Scores range from 0 to 100; higher scores reflect higher symptom levels. […] MMRM analysis was used to estimate LS mean change from baseline on all scales among patients with a baseline and at least one post-baseline score. […] Hazard ratios (HRs) with 95% confidence intervals (95% CIs) were derived from the survival analyses to determine the likelihood of definitive deterioration. Analyses were based on the intention-to-treat (ITT) population consisting of all randomized patients.

[6] = system: advanced NSCLC with PD-L1 ≥50% and brain metastases; assay: EMPOWER-Lung 1 phase 3 subgroup analysis: clinical outcomes in patients with treated stable brain metastases; format: in vivo, human
Text: Primary Endpoints: The primary endpoints are OS and PFS (per RECIST 1.1, Eisenhauer 2009). Overall survival is defined as the time from randomization to the date of death. A patient who has not died is censored at the last known date of contact. Progression-free survival is defined as the time from randomization to the date of the first documented tumor progression or death due to any cause. Patients are censored according to the following rules: […] Secondary Endpoints: A key secondary endpoint in the study is ORR. Objective response rate is defined as the number of patients with a best overall response (BOR) of confirmed CR or PR divided by the number of patients in the efficacy analysis set. Best overall response is defined as the best overall response (per RECIST 1.1) between the date of randomization and the date of the first objectively documented progression or the date of subsequent anti-cancer therapy, whichever comes first. Other secondary endpoints include DOR and QOL. Duration of response is defined as the time between the date of first response (CR or PR) to the date of the first documented tumor progression (per RECIST 1.1) or death due to any cause. Quality of life is measured by EORTC QLQ-C30 and […]. Further secondary endpoints also include the safety and tolerability of cemiplimab. To evaluate the safety and tolerability of cemiplimab versus platinum-based chemotherapies, safety and tolerability are measured by the incidence of AEs, serious adverse events (SAEs), deaths, and laboratory abnormalities to assess immunogenicity (ADA/Nabs) to cemiplimab and any relationship with drug concentrations, efficacy and safety. Methods: The design of this study is illustrated in FIG. 1. […] Tumor response to therapy was assessed according to RECIST 1.1, measured by CT or MRI. […] All patients received local therapy and needed to be neurologically stable before joining the trial. In patients with a known history of treated brain metastases at baseline, CT or MRI of the brain with contrast (unless contraindicated) was performed at screening (except if performed within 60 days prior to screening). Additional sites of known disease (including CNS) were also imaged at screening. During the treatment and follow-up period, surveillance imaging of the brain was performed every 18 weeks for year 1, and every 24 weeks for year 2, or sooner if clinically indicated.

[7] = cemiplimab n=45, chemotherapy n=42
[8] = cemiplimab n=45, chemotherapy n=42, listed as cemiplimab
[9] = Cemiplimab minus chemo, QLQ-C30, ITT
[10] = cemiplimab vs chemotherapy, ITT
[11] = after baseline, brain metastases subgroup, n=34 per arm
[12] = brain metastases subgroup, n=34 per arm
[13] = brain metastases subgroup, cemiplimab vs chemotherapy

Substance: cemiplimab
- Overall survival hazard ratio [1]: 0.57
- Progression-free survival hazard ratio [1]: 0.54
- 12-month OS ([2]; FIG. 9): 78.5%
- 12-month PFS ([2]; FIG. 10): 38.5%
- Best overall response: CR, % [2, 7]: (2.2) %
- Best overall response: Non-evaluable, % [2, 7]: (17.8) %
- Best overall response: PD, % [2, 7]: (15.6) %
- Best overall response: Partial response, % [2, 7]: (42.2) %
- Best overall response: Stable disease, % [2, 7]: (22.2) %
- ORR, % [2, 7]: (44.4) %
- PFS, median [2, 7]: 8.4 months
- ORR, % [2, 8]: 44% and 44.4%
- OS, median [2, 8]: not yet reached
- ORR odds ratio (95% CI) ([2]; cemiplimab vs chemotherapy): 1.8 (0.7-4.2); *P = 0.20
- OS HR (95% CI) ([2]; cemiplimab vs chemotherapy): 0.5 (0.2-1.1); P = 0.0875
- PFS HR (95% CI) ([2]; cemiplimab vs chemotherapy): 0.5 (0.3-0.9); P = 0.0153
- Reduction in the risk of disease progression ([2]; cemiplimab vs chemotherapy): 51%
- PFS HR (95% CI) ([2]; cemiplimab vs chemotherapy, listed as cemiplimab): 0.49
- KM estimated DOR, median ([2]; responders: cemiplimab n=20, chemotherapy n=13): 12.5 months
- Patients with ≥1 PRBC transfusions, % [3]: 1.1%
- Patients with ≥1 platelet transfusions, % [3]: 0.3%
- SAE-associated hospitalization rate [3]: 33.2 per 100 patient-years
- Difference in overall change from baseline in appetite loss ([4]; cemiplimab versus chemotherapy): −7.43
- Difference in overall change from baseline in emotional functioning ([4]; cemiplimab versus chemotherapy): 7.27
- Difference in overall change from baseline in role functioning ([4]; cemiplimab versus chemotherapy): 8.59
- Difference in overall change from baseline in symptoms of fatigue ([4]; cemiplimab versus chemotherapy): −8.19
- Overall change from baseline in GHS/QOL, difference cemiplimab versus chemotherapy ([4]; mixed model for repeated measures): 9.35
- Difference in LS mean change from BL (95% CI): Cognitive functioning [5, 9]: 2.5 (0.4-4.5)*
- Difference in LS mean change from BL (95% CI): Emotional functioning [5, 9]: 3.4 (1.0-5.9)*
- Difference in LS mean change from BL (95% CI): GHS/QoL [5, 9]: 5.4 (2.7-8.1)*
- Difference in LS mean change from BL (95% CI): Physical functioning [5, 9]: 4.2 (1.6-6.7)*
- Difference in LS mean change from BL (95% CI): Role functioning [5, 9]: 3.3 (0.2-6.3)*
- Difference in LS mean change from BL (95% CI): Social functioning [5, 9]: 5.2 (2.5-7.9)*
- LS mean change (SE) from baseline in GHS/QOL across all timepoints ([5]; MMRM analysis, EORTC QLQ-C30, C2 to C15): 7.1 (1.0)
- Definitive deterioration on key symptoms (dyspnea, cough, pain in chest, pain in other body parts, fatigue, nausea/vomiting, appetite loss, constipation, diarrhea) ([5]; cemiplimab versus chemotherapy): lower likelihood of definitive deterioration
- Definitive deterioration on key symptoms (dyspnea, cough, pain in chest, pain in other body parts, fatigue, nausea/vomiting, appetite loss, constipation, diarrhea) ([5]; cemiplimab versus chemotherapy, listed as cemiplimab): significantly lower risk of definitive deterioration
- Definitive deterioration of treatment-related symptoms of peripheral neuropathy and alopecia ([5]; cemiplimab versus chemotherapy, both P<0.05): lower likelihood of definitive deterioration; also recorded: lower risk of definitive deterioration
- HR (95% CI) for definitive deterioration: Cognitive functioning [5, 10]: 0.64 (0.44-0.93)*
- HR (95% CI) for definitive deterioration: Emotional functioning [5, 10]: 0.49 (0.30-0.79)*
- HR (95% CI) for definitive deterioration: GHS/QoL [5, 10]: 0.73 (0.52-1.03)
- HR (95% CI) for definitive deterioration: Physical functioning [5, 10]: 0.59 (0.42-0.84)*
- HR (95% CI) for definitive deterioration: Role functioning [5, 10]: 0.65 (0.46-0.92)*
- HR (95% CI) for definitive deterioration: Social functioning [5, 10]: 0.50 (0.35-0.72)*
- CNS intracranial disease progression, % of patients [6, 11]: 5.9%
- CNS intracranial disease progression, patients [6, 11]: two
- Best overall tumor response: Complete response, % [6, 12]: (8.8) %
- Best overall tumor response: Non-evaluable, % [6, 12]: (11.8) %
- Best overall tumor response: Partial response, % [6, 12]: (32.4) %
- Best overall tumor response: Progressive disease, % [6, 12]: (20.6) %
- Best overall tumor response: Stable disease, % [6, 12]: (26.5) %
- Extra-CNS disease progression, % of patients [6, 12]: 26.5%
- Extra-CNS disease progression, patients [6, 12]: 9 patients
- Intracranial disease progression due to a new tumor, % of patients [6, 12]: 2.9%
- Intracranial disease progression due to a new tumor, patients [6, 12]: one
- Intracranial disease progression due to an existing tumor, % of patients [6, 12]: 5.9%
- Intracranial disease progression due to an existing tumor, patients [6, 12]: two
- ORR [6, 12]: 41.2%
- OS, median ([6]; brain metastases subgroup, n=34 per arm, cemiplimab 350 mg IV Q3W or investigator's choice chemotherapy): 18.7 months
- ORR ([6]; brain metastases subgroup, n=34 per arm, listed as cemiplimab): 41.2%
- PFS, median ([6]; brain metastases subgroup, n=34 per arm, per independent review committee): 10.4 months
- ORR odds ratio (95% CI) [6, 13]: 6.9 (1.7-27.8); P = 0.0034*
- OS HR (95% CI) [6, 13]: 0.17 (0.04-0.76); P = 0.0091
- PFS HR (95% CI) [6, 13]: 0.45 (0.22-0.92); P = 0.0231
- Median KM estimation of brain metastasis PFS ([6]; cemiplimab versus chemotherapy, FIG. 4): superior
